The target of test [1] is T1, GST-RIPK2 fusion protein (human RIPK2, amino acids 1-310) (Homo sapiens, UniProt O43353).
T1 construct: made in house; host or cells: baculovirus infected Sf9 cells
Nature of the test: RIPK2 binding competition assay (TR-FRET, Tracer 199 displacement). Conditions: 10 nM Tracer 199, 1 nM GST-RIPK2, read-out: RIPK2 IC50. Put shortly: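 GST-RIPK2 (human aa 1-310, Sf9-expressed; final 1 nM) with Tracer 199 (final 10 nM) and Tb-anti-GST (final 0.5 nM) in Tris pH 7.5 buffer, 45 min at 22 °C. TR-FRET 665/620 nm ratio after 337 nm excitation; normalized to no-inhibitor (0%) and no-protein (−100%), giving IC50.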
On the technique in general: Time-resolved FRET reads energy transfer from a long-lived donor to a nearby acceptor.

Test [2] has as its target T2, binding of His-XIAP(BIR2)-avi fusion protein to GST-RIPK2 fusion protein (RIPK2/XIAP) (Homo sapiens, UniProt O43353).
T2 construct: made in house; host or cells: baculovirus infected Sf9 cells
The test is described as follows: RIPK2-XIAP binding competition PPI assay (TR-FRET). Conditions: RIPK2/XIAP binding competition PPI assay; for Emax: Amax, read-out: PPI Amax bin; for IC50: read-out: PPI IC50 bin. Put shortly:
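Compounds (in DMSO, 100-fold stock) incubated 120 min at 23 °C with 1 nM GST-RIPK2 (aa 1-310) and 25 nM His-XIAP(BIR2 aa 152-231)-avi, plus anti-His-XL665 and anti-GST-Tb, in pH 7.5 Tris buffer. Read-out: 665/520 nm emission ratio. Normalized to no-inhibitor (0%) and 50 nM GSK583 (−100%); Amax binned A–D.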

Test [3] relates to NF-κB pathway (SEAP) in THP1-Dual cells. The test is described as follows: THP-1 Dual cell SEAP assay (L18-MDP stimulated). The test is classed as cell-based. The note with it: Homo sapiens, THP1-Dual, read-out: NF-κB THP1 IC50 bin. Put shortly:
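THP1-Dual cells (~25,000/well) were preincubated 30 min with serially diluted compounds, then stimulated with 10 ng/mL L18-MDP (final) for 20-24 h at 37 °C. Supernatant SEAP was read with QUANTI-Blue at OD 620-655 nm after 2 h. IC50 came from non-linear fits of % inhibition versus DMSO/L18-MDP controls after media-blank subtraction.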

A value given as a limit tells only on which side of the number the result lay.

T1 sequence (O43353 1-310): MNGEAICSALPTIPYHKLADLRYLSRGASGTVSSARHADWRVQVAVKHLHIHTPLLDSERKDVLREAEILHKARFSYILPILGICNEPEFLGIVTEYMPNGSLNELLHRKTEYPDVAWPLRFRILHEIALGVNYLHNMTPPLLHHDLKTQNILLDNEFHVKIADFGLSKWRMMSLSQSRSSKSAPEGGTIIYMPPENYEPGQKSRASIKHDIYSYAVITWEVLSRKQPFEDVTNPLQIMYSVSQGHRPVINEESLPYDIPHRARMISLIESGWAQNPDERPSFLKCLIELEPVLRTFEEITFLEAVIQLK
T2 sequence (O43353 1-310 limits assumed): as the sequence (O43353 1-310) above

In general, IC50 refers to the point on the concentration scale where inhibition reaches its midpoint. `C[C@H](CO)COc1cc2ncc(-c3cc(F)c(N)nc3F)n2cc1S(=O)(=O)C(C)(C)C` [Example 176, (R)-3-((3-(6-amino-2,5-difluoropyridin-3-yl)-6-(tert-butylsulfonyl)imidazo[1,2-a]pyridin-7-yl)oxy)-2-methylpropan-1-ol]: the IC50 in test [1] was 1 to 2.5 nM; in test [2], 1 to 2.5 nM; in test [3], 50 to 250 nM. The Emax in test [2] is greater than 80%.

For `CC(C)(C)S(=O)(=O)c1cn2c(-c3cc(F)c(N)nc3F)cnc2cc1OC1COC1` [Example 33, 5-(6-(tert-butylsulfonyl)-7-(oxetan-3-yloxy)imidazo[1,2-a]pyridin-3-yl)-3,6-difluoropyridin-2-amine], the IC50 in test [1] was 2.5 to 20 nM; in test [2], 2.5 to 20 nM; in test [3], greater than 1000 nM. The Emax in test [2] is greater than 80%.

On to `COc1cc2ncc(-c3cc(F)c(N)nc3F)n2cc1S(=O)(=O)C(C)(C)CO` [Example 60, 2-((3-(6-amino-2,5-difluoropyridin-3-yl)-7-methoxyimidazo[1,2-a]pyridin-6-yl)sulfonyl)-2-methylpropan-1-ol], for which the IC50 in test [1] was in the range of 2.5 to 20 nM; in test [2], 2.5 to 20 nM; in test [3] it was 250 to 1000 nM. Also, the Emax in test [2] is greater than 80%.

Take `COc1cc2ncc(-c3cc(N)cc4[nH]ncc34)n2cc1S(=O)(=O)C(C)(C)C` [Example 7, 4-[7-Methoxy-6-(2-methylpropane-2-sulfonyl)imidazo[1,2-a]pyridin-3-yl]-1H-indazol-6-amine]: the IC50 was greater than 20 nM in test [1], greater than 20 nM in test [2] and greater than 1000 nM in test [3]. Moreover, the Emax in test [2] lay within 30 to 55%.

For the compound `C[C@@H](O)COc1cc2ncc(-c3cc(F)c(N)nc3F)n2cc1S(=O)(=O)C(C)(C)C` [Example 171, (R)-1-((3-(6-amino-2,5-difluoropyridin-3-yl)-6-(tert-butylsulfonyl)imidazo[1,2-a]pyridin-7-yl)oxy)propan-2-ol], the results for the half-maximal inhibitory concentration (IC50) in test [1], in test [2] and in test [3] were 2.5 to 20 nM, 2.5 to 20 nM and 50 to 250 nM, respectively. Besides, the Emax in test [2] is greater than 80%.

Turning to `CC(CO)COc1cc2ncc(-c3cc(F)c(N)nc3F)n2cc1S(=O)(=O)C(C)(C)C` (racemic) [Example 174, 3-((3-(6-amino-2,5-difluoropyridin-3-yl)-6-(tert-butylsulfonyl)imidazo[1,2-a]pyridin-7-yl)oxy)-2-methylpropan-1-ol], the IC50 fell in the range of 1 to 2.5 nM in test [1], 1 to 2.5 nM in test [2] and 50 to 250 nM in test [3]. Also, in test [2], the Emax was greater than 80%.

Consider `COc1cc2ncc(-c3cccc(NS(=O)(=O)C4CNC4)c3)n2cc1S(=O)(=O)C(C)(C)C` [Example 156, N-(3-(6-(tert-butylsulfonyl)-7-methoxyimidazo[1,2-a]pyridin-3-yl)phenyl)azetidine-3-sulfonamide], for which the IC50 in test [1] is greater than 20 nM; in test [2], greater than 20 nM; in test [3], greater than 1000 nM. In addition, in test [2], the Emax was greater than 80%.

Consider `COc1cc2ncc(-c3ccc(NC(C)=O)nc3)n2cc1S(=O)(=O)C(C)(C)C` [Example 8, N-(5-(6-(tert-butylsulfonyl)-7-methoxyimidazo[1,2-a]pyridin-3-yl)pyridin-2-yl)acetamide], for which the half-maximal inhibitory concentration (IC50) in test [1] is greater than 20 nM; in test [2], greater than 20 nM; in test [3] it was greater than 1000 nM. In test [2], the Emax is less than 30%.

Consider `CC(C)(C)S(=O)(=O)c1cn2c(-c3cc(F)c(N)nc3F)cnc2cc1OCC(F)(F)CN` [Example 202, 5-(7-(3-amino-2,2-difluoropropoxy)-6-(tert-butylsulfonyl)imidazo [1,2-a]pyridin-3-yl)-3,6-difluoropyridin-2-amine], for which the IC50 in test [1] was 1 to 2.5 nM; in test [2] it was 1 to 2.5 nM; in test [3], 50 to 250 nM. In addition, the Emax in test [2] was greater than 80%.

On to `CC(C)(C)S(=O)(=O)c1cc2c(-c3cc(Cl)c(N)nc3F)cnn2cc1OCCO` [Example 15, 2-((3-(6-amino-5-chloro-2-fluoropyridin-3-yl)-5-(tert-butylsulfonyl)pyrazolo[1,5-a]pyridin-6-yl)oxy)ethan-1-ol], for which the IC50 in test [1] was in the range of 1 to 2.5 nM; in test [2] it was 1 to 2.5 nM; in test [3] it was 50 to 250 nM. For the same compound, the Emax in test [2] is greater than 80%.

For the origin of these results see patent US20260137706A1, “METHODS OF TREATING INFLAMMATORY DISEASES” (INTERLINE THERAPEUTICS, INC., priority 2023, published 2026).
